The source of these data is article PMC4364341, “NBD delivery improves the disease phenotype of the golden retriever model of Duchenne muscular dystrophy” (Skeletal Muscle, 2014).

One assay deals with GRMD dogs. Put plainly: Tibiotarsal joint (TTJ) tetanic force/torque, GRMD dogs. The assay is classed as in vivo, dog. The settings on record: for Absolute Tetanic Extension Force / Absolute Tetanic Extension Torque / Absolute Tetanic Flexion Force / Absolute Tetanic Flexion Torque / Body-mass Corrected Tetanic Extension Force / Body-mass Corrected Tetanic Extension Torque / Body-mass Corrected Tetanic Flexion Force / Body-mass Corrected Tetanic Flexion Torque: n = 6. The method, then:
The GRMD disease phenotype was initially determined based on elevation of serum creatine kinase and confirmed by PCR. Two cohorts of GRMD dogs were treated with a 4-month course of NBD (10 mg/kg, IV) (American Peptides; Sunnyvale, CA, USA), beginning at approximately 2 months of age. The first cohort included four GRMD (Wasabi, Pepper, Hiver, and Automne) and two wild type (Cumin and Fennel) dogs, while the second cohort included two GRMD (Peach and Kiwi) and one wild type (Mango) dog. Results were compared with those collected from 10 untreated GRMD dogs (Cilantro, Lyle, Napoleon, Summer, Jane, Cosmo, Dorothy, Toto, Hickory, and Zeke) and eight age-matched wild type littermates (Oregano, Parsley, Kip, Pedro, Pinkman, Saul, Heisenberg, and Tuco) through a parallel, but separate, natural history study in which functional, magnetic resonance imaging (MRI), and pathologic data were collected.
For all tests, dogs were anesthetized (premeds: acepromazine maleate (0.02 mg/kg), butorphanol (0.4 mg/kg), and atropine sulfate (0.04 mg/kg); masked/intubated; and maintained with sevoflurane). To assess force and eccentric contraction decrement (below), dogs were positioned in dorsal recumbence in a custom-made stereotactic frame that aligns the tibia parallel to the table at a 90° angle to the femur. The angle at which maximal joint torque is generated during isometric contractions has been termed the optimal joint angle, which is analogous to the optimal fiber length (Lo) for individual muscle force measurements. Our choice of 90° as the optimal joint angle was based on studies in which torque was measured over a range of angles. The length-tension relationship was not shifted for normal versus GRMD dogs. TTJ flexion and extension torque (N-m) was measured by a rapid-response servomotor/force transducer (model 310B LR, Aurora Scientific, Inc., Aurora, ON, Canada) controlled by a PC using custom LabView software. Either the common peroneal (TTJ flexion) or tibial (TTJ extension) nerve was stimulated using paired stimulating and reference 27-gauge monopolar electrodes placed just distal to the fibular head (common peroneal nerve) or within the gastrocnemius muscles (tibial nerve), respectively. As a result, the paw of the distal pelvic limb pulled (flexion) or pushed against (extension) a pedal affixed to a transducer, providing a measure of isometric torque. Supramaximal 150 V, 100 μs pulses were applied (Model S48 Solid State Square Wave Stimulator; Grass Instruments, Quincy, MA, USA) in a tetanic run of 250 pulses (50/s). The site of contact for the paw with the lever (moment arm) was estimated to be 75% of the distance between the point of the hock and the distal digit. Torque (Newton-meters) was divided by the moment arm (meters) to convert to force (Newtons).

For another assay, the system named is mdx mice. Put plainly: Histopathology of quadriceps muscles of NBD-treated mdx mice. The settings on record: 4 weeks, Quad muscles. The assay is classed as in vivo, mouse. The method, then: Mdx mice (C57BL/10ScSn-DMD^mdx/J) were purchased from The Jackson Laboratory and housed in the animal facility (University Laboratory Animal Resources, ULAR) at The Ohio State University under conventional conditions with constant temperature and humidity, and fed with standard diet. Treatment of mice was performed between 5 and 7 weeks of age as earlier described, and in accordance with the guidelines of the Institutional Animal Care and Use Committee at The Ohio State University. Efficacy of NBD was assessed comparing four groups (n = 5 each) of mdx mice treated either with vehicle or 3, 2, or 1 × per week with NBD by intraperitoneal (IP) delivery. Two separate groups (n = 10) were dosed subcutaneously (SQ) with vehicle or NBD, and finally two groups (n = 5) were treated with vehicle or NBD by intravenous (IV) delivery. Vascular access ports (VAP) were placed subcutaneously over the dorsal torso and a catheter was surgically inserted into the jugular vein. The catheter was kept clear by a pre- and post-wash with heparin.
For mice muscles, histopathological assessment was performed as earlier described. For canine samples, CS, lateral gastrocnemius, vastus lateralis, and diaphragm muscles were assessed at the end of the 4-month treatment period when dogs were necropsied. Muscle samples were snap frozen in isopentane cooled in liquid nitrogen, and stored at -80°C. A total of 16 dogs (3 wild type, 2 wild type + NBD, 5 untreated GRMD, and 6 GRMD + NBD) were assessed. […] For each stain, quantitation was performed on three 10 μm sections of each muscle. To determine the degree of inflammation, cells that stained with a canine specific macrophage PM2K antibody were quantitated. Muscle damage was assessed by scoring for IgG-positive myofibers using immunofluorescence, and necrotic foci by hematoxylin and eosin (H&E) staining. Centrally located nuclei (CLN) were quantified on H&E sections to determine the degree of regeneration. Staining was quantitated on an Olympus BX51 microscope with Microsuite Five software (Olympus Soft Imaging Solutions GmbH, Center Valley, PA, USA). […]

Where [1] appears, read: NBD group, age 2 months (start of treatment).
[2] abbreviates: age 6 months, NBD 10 mg/kg IV 3x weekly for 4 months.

In the case of “TALDWSWLQTE [NBD, NBD peptide (…) fused to an Antennapedia protein transduction domain]”, in the assay on GRMD dogs (setting [1]), the “Absolute Tetanic Extension Force” value was found to be 7.50 ± 2.09 N, the “Absolute Tetanic Extension Torque” value worked out at 0.62 ± 0.16 Nm, the “Absolute Tetanic Flexion Force” value was 2.05 ± 0.58 N and the “Absolute Tetanic Flexion Torque” value was 0.17 ± 0.06 Nm. In the assay with GRMD dogs (setting [1]), the “Body-mass Corrected Tetanic Extension Force” value amounted to 2.11 ± 0.70 N/kg, the “Body-mass Corrected Tetanic Extension Torque” value is given as 0.21 ± 0.07 Nm/kg, the “Body-mass Corrected Tetanic Flexion Force” value came to 0.57 ± 0.15 N/kg and the “Body-mass Corrected Tetanic Flexion Torque” value was determined as 0.05 ± 0.01 Nm/kg. In addition, in the assay with GRMD dogs (setting [2]), the “Absolute Tetanic Extension Force” value was 34.30 ± 9.65^1**,2 N, the “Absolute Tetanic Extension Torque” value was 4.55 ± 1.49^1**,2 Nm, the “Absolute Tetanic Flexion Force” value is on record as 6.79 ± 1.13^1 N and the “Absolute Tetanic Flexion Torque” value is 0.89 ± 0.18^1 Nm. For the same sequence, in the assay with GRMD dogs (setting [2]), the “Body-mass Corrected Tetanic Extension Force” value is 2.70 ± 0.65^2 N/kg, the “Body-mass Corrected Tetanic Extension Torque” value was 0.36 ± 0.08^1*,2 Nm/kg, the “Body-mass Corrected Tetanic Flexion Force” value came out at 0.55 ± 0.13 N/kg and the “Body-mass Corrected Tetanic Flexion Torque” value was 0.07 ± 0.02^1 Nm/kg. Moreover, the “Increase in extension force vs untreated GRMD dogs” value in the assay with GRMD dogs (pelvic limb, body-mass corrected, NBD 10 mg/kg IV 3x weekly for 4 months, P = 0.038) worked out at 73%. In addition, the “Histopathologic improvement with reduced treatment frequencies” value with mdx mice (IP 10 mg/kg, 2x or 1x per week compared to 3x per week, n = 5 per group) is recorded as “less pronounced”. In addition, the “Histopathologic improvement after intravenous dosing” value with mdx mice (IV via VAP, 10 mg/kg 3x weekly, n = 5 per group) was “significant histopathologic improvement”. Besides, in the assay with mdx mice (SQ 10 mg/kg 3x weekly, n = 10 per group), the “Reduction of muscle inflammation and necrosis after subcutaneous dosing” value is listed as “no such improvements were observed”.
